Activity calls are given as the source filed them. The calls are words filed in the database; no cut-off is given here.
Legend:
[1] = test system: NCI-H1299; assay: Inhibition of colony formation in human NCI-H1299 cells at 0.5 uM measured after 7 days by SRB staining based assay relative to control; format: functional; settings: NCI-H1299, 168 h, time 7 day
[2] = target: T1, Ubiquitin carboxyl-terminal hydrolase 1/WD repeat-containing protein 48 (Homo sapiens) (UniProt O94782+Q8TAF3); assay: Non competitive inhibition of USP1/UAF1 complex (unknown origin) using Ub-7-amido-4-methylcoumarin as substrate at 0 to 200 nM incubated for 120 mins by Lineweaver-burk plot analysis; format: protein-complex assay; settings: dose 0-200 nM
[3] = target: T1, Ubiquitin carboxyl-terminal hydrolase 1/WD repeat-containing protein 48 (Homo sapiens); assay: Inhibition of recombinant human 6His-tagged USP1-6His-tagged UAF1 complex using diubiquitin as a substrate assessed as inhibiting the cleavage of K63-linked di-Ub at 0 to 10 uM preincubated for 15 mins followed by substrate addition and measured after 2 hrs by SDS-PAGE analysis; format: protein-complex assay; settings: dose 0-10 µM, time 135.0 min
[4] = target: Ubiquitin carboxyl-terminal hydrolase 7 (Homo sapiens) (UniProt Q93009); assay: Inhibition of recombinant human 8His-tagged USP7 using diubiquitin as a substrate at 0 to 10 uM preincubated for 15 mins followed by substrate addition and measured after 2 hrs by SDS-PAGE analysis; settings: dose 0-10 µM, time 135.0 min
Ubiquitin carboxyl-terminal hydrolase 7 (Homo sapiens), sequence (Q93009 whole entry, looked up): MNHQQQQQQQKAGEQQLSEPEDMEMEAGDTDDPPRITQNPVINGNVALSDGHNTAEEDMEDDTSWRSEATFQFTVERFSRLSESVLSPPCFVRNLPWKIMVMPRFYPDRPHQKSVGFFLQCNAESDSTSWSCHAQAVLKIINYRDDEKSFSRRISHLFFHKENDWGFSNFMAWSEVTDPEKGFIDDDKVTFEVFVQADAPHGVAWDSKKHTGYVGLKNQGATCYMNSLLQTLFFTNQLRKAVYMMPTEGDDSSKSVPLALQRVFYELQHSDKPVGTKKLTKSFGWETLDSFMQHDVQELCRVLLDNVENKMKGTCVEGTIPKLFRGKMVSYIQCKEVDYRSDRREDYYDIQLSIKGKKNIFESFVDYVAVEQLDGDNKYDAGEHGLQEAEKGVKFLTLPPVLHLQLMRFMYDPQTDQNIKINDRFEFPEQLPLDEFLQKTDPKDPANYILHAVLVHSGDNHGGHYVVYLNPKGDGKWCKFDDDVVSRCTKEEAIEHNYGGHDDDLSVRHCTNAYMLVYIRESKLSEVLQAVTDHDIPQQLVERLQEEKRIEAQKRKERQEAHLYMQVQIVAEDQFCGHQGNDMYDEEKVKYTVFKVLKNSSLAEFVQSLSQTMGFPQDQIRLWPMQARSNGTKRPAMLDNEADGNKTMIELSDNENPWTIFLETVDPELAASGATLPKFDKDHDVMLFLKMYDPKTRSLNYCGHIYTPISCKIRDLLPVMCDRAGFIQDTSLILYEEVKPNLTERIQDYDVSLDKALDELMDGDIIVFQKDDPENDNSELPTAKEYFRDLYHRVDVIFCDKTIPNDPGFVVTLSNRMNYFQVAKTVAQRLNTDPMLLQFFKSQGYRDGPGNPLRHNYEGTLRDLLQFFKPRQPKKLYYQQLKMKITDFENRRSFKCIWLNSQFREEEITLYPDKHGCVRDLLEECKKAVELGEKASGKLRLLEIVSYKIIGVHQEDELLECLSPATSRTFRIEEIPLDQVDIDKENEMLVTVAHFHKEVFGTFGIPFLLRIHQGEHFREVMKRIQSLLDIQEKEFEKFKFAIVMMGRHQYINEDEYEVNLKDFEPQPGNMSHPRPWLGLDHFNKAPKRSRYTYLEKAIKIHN

[5] = target: T2, Ubiquitin carboxyl-terminal hydrolase 8 (Homo sapiens) (UniProt P40818); assay: Inhibition of recombinant human 6His-tagged USP8 using diubiquitin as a substrate at 0 to 10 uM preincubated for 15 mins followed by substrate addition and measured after 2 hrs by SDS-PAGE analysis; settings: dose 0-10 µM, time 135.0 min
T2 sequence (whole entry): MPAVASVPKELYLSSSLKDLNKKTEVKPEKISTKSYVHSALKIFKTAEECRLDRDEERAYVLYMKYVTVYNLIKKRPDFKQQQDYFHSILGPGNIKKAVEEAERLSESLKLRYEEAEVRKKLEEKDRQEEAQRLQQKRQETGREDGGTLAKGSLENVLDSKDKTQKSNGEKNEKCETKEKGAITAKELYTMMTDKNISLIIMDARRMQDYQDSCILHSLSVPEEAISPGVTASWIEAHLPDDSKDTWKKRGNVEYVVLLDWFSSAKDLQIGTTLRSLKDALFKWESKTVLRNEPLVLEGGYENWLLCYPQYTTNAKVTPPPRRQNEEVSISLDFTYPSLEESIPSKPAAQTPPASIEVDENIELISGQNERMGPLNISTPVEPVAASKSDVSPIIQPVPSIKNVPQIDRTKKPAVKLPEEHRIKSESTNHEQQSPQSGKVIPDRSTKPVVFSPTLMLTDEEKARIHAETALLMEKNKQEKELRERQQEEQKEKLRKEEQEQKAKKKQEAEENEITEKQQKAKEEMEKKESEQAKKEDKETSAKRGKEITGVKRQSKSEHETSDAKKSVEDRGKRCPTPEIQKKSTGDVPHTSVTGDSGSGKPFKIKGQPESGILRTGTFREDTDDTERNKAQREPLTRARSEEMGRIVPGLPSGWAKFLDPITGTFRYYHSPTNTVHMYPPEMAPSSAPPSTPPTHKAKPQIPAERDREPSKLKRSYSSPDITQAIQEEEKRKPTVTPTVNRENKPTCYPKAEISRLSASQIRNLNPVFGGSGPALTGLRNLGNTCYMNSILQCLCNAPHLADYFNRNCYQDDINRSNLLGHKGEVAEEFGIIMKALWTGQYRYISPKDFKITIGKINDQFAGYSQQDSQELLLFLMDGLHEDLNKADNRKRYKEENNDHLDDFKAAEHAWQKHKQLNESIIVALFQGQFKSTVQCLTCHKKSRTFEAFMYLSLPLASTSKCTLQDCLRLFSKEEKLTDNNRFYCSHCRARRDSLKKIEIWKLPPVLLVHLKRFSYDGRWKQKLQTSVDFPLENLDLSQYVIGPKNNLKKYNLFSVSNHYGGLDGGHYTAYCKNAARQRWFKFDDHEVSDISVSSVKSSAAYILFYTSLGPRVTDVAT

[6] = target: T3, Ubiquitin carboxyl-terminal hydrolase 25 (Homo sapiens) (UniProt Q9UHP3); assay: Inhibition of recombinant human 6His-tagged USP25 using diubiquitin as a substrate at 0 to 10 uM preincubated for 15 mins followed by substrate addition and measured after 2 hrs by SDS-PAGE analysis; settings: dose 0-10 µM, time 135.0 min
T3 sequence (whole entry): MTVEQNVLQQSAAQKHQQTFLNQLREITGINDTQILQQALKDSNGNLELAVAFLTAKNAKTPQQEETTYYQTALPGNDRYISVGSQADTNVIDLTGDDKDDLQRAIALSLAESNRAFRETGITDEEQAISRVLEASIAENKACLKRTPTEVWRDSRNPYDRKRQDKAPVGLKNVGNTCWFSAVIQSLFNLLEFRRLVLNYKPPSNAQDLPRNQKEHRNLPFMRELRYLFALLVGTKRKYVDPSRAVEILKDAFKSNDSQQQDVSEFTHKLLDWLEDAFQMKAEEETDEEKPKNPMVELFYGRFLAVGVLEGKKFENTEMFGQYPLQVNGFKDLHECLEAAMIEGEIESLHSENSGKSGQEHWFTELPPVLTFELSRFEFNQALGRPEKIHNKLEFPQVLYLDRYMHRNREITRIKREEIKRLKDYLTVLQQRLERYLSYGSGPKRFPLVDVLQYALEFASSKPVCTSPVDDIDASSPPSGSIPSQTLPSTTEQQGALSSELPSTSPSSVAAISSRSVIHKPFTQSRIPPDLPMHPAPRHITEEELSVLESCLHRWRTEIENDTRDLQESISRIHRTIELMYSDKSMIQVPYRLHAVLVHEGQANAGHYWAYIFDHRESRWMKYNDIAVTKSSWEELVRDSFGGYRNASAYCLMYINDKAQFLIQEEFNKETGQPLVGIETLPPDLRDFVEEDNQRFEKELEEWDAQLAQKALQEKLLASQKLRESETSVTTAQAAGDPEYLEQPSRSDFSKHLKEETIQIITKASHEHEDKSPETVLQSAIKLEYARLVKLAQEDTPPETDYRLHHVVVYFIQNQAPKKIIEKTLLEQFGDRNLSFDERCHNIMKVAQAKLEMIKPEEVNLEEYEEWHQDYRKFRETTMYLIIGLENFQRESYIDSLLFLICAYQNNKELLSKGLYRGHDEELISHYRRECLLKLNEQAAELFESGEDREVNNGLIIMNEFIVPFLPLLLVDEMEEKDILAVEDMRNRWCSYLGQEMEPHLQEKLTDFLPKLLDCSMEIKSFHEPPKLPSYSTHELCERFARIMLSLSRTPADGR

[7] = test system: Olaparib-resistant MDA-MB-436; assay: Induction of cell cycle arrest in human Olaparib-resistant MDA-MB-436 cell assessed as increase in cells at S phase at 1 uM incubated for 24 hrs by PI staining based flow cytometry analysis; format: functional
[8] = test system: Olaparib-resistant MDA-MB-436; assay: Induction of cell cycle arrest in human Olaparib-resistant MDA-MB-436 cell assessed as accumulation of cells in S phase at 1 uM incubated for 24 hrs in the presence of olaparib by PI staining based flow cytometry analysis; format: functional

inhibition [2]: Active
inhibition [3]: Active
inhibition [4]: inactive
inhibition [5]: inactive
inhibition [6]: inactive
SMILES: COc1ncnc(C2CC2)c1-c1ncc2ccc(=O)n(Cc3ccc(-c4nc(C(F)(F)F)cn4C(C)C)cc3)c2n1
inhibition at 0.5 µM [1]: 70%
Activity [7]: Active
Activity [8]: Active

Reference: ChEMBL document CHEMBL5579832, “Design, synthesis, and biological evaluation of pyrido[2,3-d]pyrimidin-7(8H)-one derivatives as potent USP1 inhibitors” (Eur J Med Chem, 2024)
